Measurements as given in patent US8017780B1, “Therapeutic compounds and uses thereof” (Myrexis, Inc., priority 2008, dated 2011).

Each compound was assayed against T1, purified human Hsp90 (assay: Hsp90 binding assay: displacement of BODIPY-labeled geldanamycin by fluorescence polarization). Details: BODIPY-GM 10 nM, purified human Hsp90 30 nM, overnight at room temperature; read-out: GM Displacement From Purified Hsp90 measured by FP.
T1 construct: purified human Hsp90 (Stressgen, SPP-770)
Procedure: The binding of exemplary compounds to purified Hsp90 can be assayed by measuring the displacement of BODIPY-labeled geldanamycin (BODIPY-GM) from purified human Hsp90, using a fluorescence polarization assay adapted from Kim et al. (Journal of Biomolecular Screening […]. Compound dilutions (in 100% DMSO) are added to black-bottom 96-well plates (Greiner; 2% DMSO final), and equal volumes of BODIPY-GM (10 nM final) and purified human Hsp90 (Stressgen, SPP-770; 30 nM final) in assay buffer (20 mM HEPES-KOH pH 7.3, 50 mM KCl, 5 mM MgCl2, 20 mM Na2MoO4, 0.01% NP-40, 0.1 mg/mL bovine gamma globulin [Invitrogen, P2045], 2 mM DTT) are added sequentially to yield a final volume of 50 microliters. Plates are incubated overnight at room temperature. Parallel and perpendicular fluorescence measurements are read (LJL BioSystems Analyst AD plate reader) at excitation/emission wavelengths of 485/530 nm. Background fluorescence (buffer only) is subtracted, and fluorescence polarization (FP) values, expressed in mP units, are calculated from parallel and perpendicular fluorescence readings as follows: FP=(parallel−perpendicular)/(parallel+perpendicular)*1000.
Percent inhibition is calculated by normalizing the FP values to those obtained in parallel reactions containing DMSO and subtracting these normalized values from 100%. Intrinsic compound fluorescence is independently monitored, and FP data points confounded by compound fluorescence are excluded from the analysis.

IC50	SMILES
0.11 µM	CN(C)c1cc2c(cc1Sc1nc3c(N)nccc3n1CCC1CCN(C=O)CC1)OCO2 [Example 8]
1 µM	C[C@H](O)C(=O)N1CCC(CCn2c(Sc3cc4c(cc3Br)OCO4)nc3c(N)nccc32)CC1 [Example 5, (2S)-1-[4-(2-{4-Amino-2-[(6-bromo-1,3-benzodioxol-5-yl)sulfanyl]-1H-imidazo[4,5-c]pyridin-1-yl}ethyl)piperidin-1-yl]-2-hydroxypropan-1-one]
0.11 µM	C[C@H](O)C(=O)N1CCC(CCn2c(Sc3cc4c(cc3N(C)C)OCO4)nc3c(N)nccc32)CC1 [Example 10, (2S)-1-[4-(2-{4-Amino-2-[(6-(dimethylamino)-1,3-benzodioxol-5-yl)sulfanyl]-1H-imidazo[4,5-c]pyridin-1-yl}ethyl)piperidin-1-yl]-2-hydroxypropan-1-one]
0.079 µM	CC(=O)O[C@@H](C)C(=O)N1CCC(CCn2c(Sc3cc4c(cc3N(C)C)OCO4)nc3c(N)nccc32)CC1 [Example 9, (2S)-1-[4-(2-{4-Amino-2-[(6-(dimethylamino)-1,3-benzodioxol-5-yl)sulfanyl]-1H-imidazo[4,5-c]pyridin-1-yl}ethyl)piperidin-1-yl]-1-oxopropan-2-yl acetate]
2.4 µM	Nc1nccc2c1nc(Sc1cc3c(cc1Br)OCO3)n2CCc1ccccc1Cl [Example 3, 2-[(6-Bromo-1,3-benzodioxol-5-yl)sulfanyl]-1-[2-(2-chlorophenyl)ethyl]-1H-imidazo[4,5-c]pyridin-4-amine]
5 µM	Nc1nccc2c1nc(Sc1cc3c(cc1Br)OCO3)n2CCC1CCN(C=O)CC1 [Example 1, 4-(2-[4-Amino-2-[(6-bromo-1,3-benzodioxol-5-yl)sulfanyl]-1H-imidazo[4,5-c]pyridin-1-yl]ethyl)piperidine-1-carbaldehyde]
5 µM	CC(=O)N1CCC(CCn2c(Sc3cc4c(cc3Br)OCO4)nc3c(N)nccc32)CC1 [Example 2, 1-[4-(2-{4-Amino-2-[(6-bromo-1,3-benzodioxol-5-yl)sulfanyl]-1H-imidazo[4,5-c]pyridin-1-yl}ethyl)piperidin-1-yl]ethanone]
